Laboratory results published in US20050059645A1, “Methods for the treatment of male and female sexual dysfunction” (priority 2003, published 2005).

Columns and labels:
[1] = tested on: ovariectomized female rats; assay: Lordosis behavior test (lordosis quotient) in ovariectomized female rats; format: in vivo, rat
Description: Thus, lordosis was selected as an indicator of restoration of female sexual function in ovariectomized female rats and an appropriate indicator for alleviating symptoms of female sexual dysfunction.
Adult female Sprague Dawley rats (220-250 g) from Charles River Hungary Ltd., Godollo, Hungary, were used. Animals were kept in community cages (4 animals/cage) in a climate-controlled room (23±2° C., 50-60% humidity), with a 14 hour light, 10 hour dark cycle of artificial lighting, using reversed light/dark cycle. Food and water were available ad libitum.
After a minimum five-day acclimatization period, animals were ovariectomized under ether anesthesia, then were left to recover for 3 weeks before testing (reconvalescence). All animals were treated in accordance with the guidelines of the European Communities Council Directive (86/609/EEC) and studies were permitted by the Institutional Animal Care Commission.
Estradiol benzoate and progesterone were obtained from Sigma Chemical Co. Inc., Budapest, Hungary. […] E2-CDS as a 3% complex with HPβCD (E2-CDS-CD) was dissolved in distilled water and diluted with 27% HPβCD solution. E2-CDS-CD was synthesized by Alchem Laboratories Corporation, Alachua, Fla., US.
(§1) After recovery from surgery, ovariectomized female rats were divided into four groups and treated once a day for five days intravenously, via a bolus injection through the tail vein, as follows: (1) control, 27% HPβCD solution; (2) 0.003 mg/kg E2-CDS dissolved in 27% HPβCD solution; (3) 0.01 mg/kg E2-CDS dissolved in 27% HPβCD solution; and (4) 0.03 mg/kg E2-CDS dissolved in 27% HPβCD solution. A minimal number of ovariectomized (8 to 12) females were used per group. Intravenous treatments either with E2-CDS or HPβCD (controls) were carried out daily for 5 days beginning 2 days prior to the first day of behavior observations, in a volume of 0.05 ml/100 g body weight.
The behavior test was conducted in a plexiglass observation cage during the dark cycle. During behavioral observations, only a dim red light was on.
An experienced and active male rat was placed in the arena 5 minutes prior to the female. […] The lordosis quotient (LQ) expresses the estrogen effect on sexual receptivity and was calculated as follows: LQ=100×number of lordoses/10 mounts The observation of the sexual behavior of each female was carried out, in the case of E2-CDS, every day for 22 days; in the case of EB, investigations were carried out every day for 10 days. […] Citrated blood samples were taken by retro-orbital sinus puncture under light ether anesthesia. The samples were stored at 4° C. for one hour, then centrifuged at 1000 g for 10 minutes. Plasma was separated and stored at −80° C. until assayed. Plasma LH concentrations from individual samples were measured by double antibody radioimmunoassay kits obtained from Amersham Pharmacia Biotech, Rome, Italy. […] The limit of detection was 15 pg/ml.
Behavioral changes were analyzed using the Mann-Whitney U test (Siegel, Nonparametric Statistics for the Behavioral Sciences, New York; McGraw-Hill Book Company, Inc., 1956). The Fisher exact test was used for percentage comparisons (Zar, Biostatistical Analysis, Prentice Hall, Inc., Englewood Cliffs, N.J., 1974). Serum LH data were analyzed for each time and treatment group by analysis of variance (ANOVA) followed by Bonferroni posthoc test.

[2] = tested on: postmenopausal women; assay: Phase I: safety and tolerance (adverse events); details: 2.86 mg buccal, both regimens
Description: Even more recently, in a Phase I clinical study of postmenopausal women, two different administration regimens of a 2.86 mg E2-CDS buccal delivery tablet were evaluated for safety and effects on hormone levels. The subjects were 12 healthy postmenopausal volunteers, divided into two groups of six. In Group A, women were dosed once daily for 10 days (10 doses); in Group B, women were dosed once every other day for 13 days (7 doses).

[3] = tested on: 2OHE1/16OHE1; assay: Phase I: urinary estrone metabolites 2OHE1/16OHE1; format: in vivo, human; details: for amount of urinary 16OHE1 relative to day 1: female, human, in vivo
Text: (§2) A brief evaluation of the results follows:

[4] = tested on: morphine-dependent rats; details: cited from earlier work
[5] = female, human, in vivo, 2.5 mg
Text: as §2
One explanation for this difference might be the difference in the dissolution (and buccal residence) time of the two formulations used in these two different studies.

[6] = tested on: LH; assay: Plasma LH by radioimmunoassay in ovariectomized female rats; format: in vivo, rat; details: 0.003, 0.01 and 0.03 mg/kg i.v. daily for 5 days
Description: as §1
An experienced and active male rat was placed in the arena 5 minutes prior to the female. […] The lordosis quotient (LQ) expresses the estrogen effect on sexual receptivity and was calculated as follows: LQ=100×number of lordoses/10 mounts The observation of the sexual behavior of each female was carried out, in the case of E2-CDS, every day for 22 days; in the case of EB, investigations were carried out every day for 10 days. […] Citrated blood samples were taken by retro-orbital sinus puncture under light ether anesthesia. […] Plasma LH concentrations from individual samples were measured by double antibody radioimmunoassay kits obtained from Amersham Pharmacia Biotech, Rome, Italy. […]

[7] = 0.01 mg/kg i.v. once a day for 5 days
[8] = 0.03 mg/kg i.v. once a day for 5 days

With `CN1C=CCC(C(=O)O[C@H]2CC[C@H]3[C@@H]4CCc5cc(O)ccc5[C@H]4CC[C@]23C)=C1` [E2-CDS, 17β-[(1-methyl-1,4-dihydro-3-pyridinyl)carbonyloxy]estra-1,3,5(10)-trien-3-ol] the “lordosis quotient, effect” value ([1]; 0.003 mg/kg i.v. once a day for 5 days) was “slightly enhanced the lordosis quotient, but these effects were not statistically significant”, the “duration of LQ increase (after day 11 not statistically significant)” value [1, 7] was “lasted till day 15” and the “lordosis quotient LQ, effect” value [1, 7] was “significantly enhanced the LQ from day 5 to day 11”. For the same compound, the “duration of LQ enhancement” value [1, 8] was “from day 3 to day 18”, the “lordosis quotient LQ, effect” value [1, 8] was “significantly enhanced” and the “severity of adverse events” value [2] was “All AEs were mild or moderate, no serious AE was observed”. For the same compound, the “increase of ratio of 2OHE1 to 16OHE1 during treatment” value ([3]; Group A) was 63.6%, the “increase of ratio of 2OHE1 to 16OHE1 during treatment” value ([3]; Group B) was 54.7% and the “difference of mean ratios, urine” value ([3]; day 10-1, Group A) was 0.15. For the same compound, the “difference of mean ratios, urine” value ([3]; day 13-1, Group B) was 0.05, the “amount of urinary 16OHE1 relative to day 1” value ([3]; 10 day) was 2.48 times and the “amount of urinary 16OHE1 relative to day 1” value ([3]; 13 day) was 1.26 times. The “naloxone-induced rise in TST” value ([4]; 1 mg/kg i.v. once weekly for three weeks, tested one week after last injection) was “significantly attenuated”, the “attenuation of naloxone-induced rise in TST” value ([4]; single 1 mg/kg i.v., tested one week after injection) was 25% and the “Tmax of E2” value [5] was 2 h. The “average Cmax of E2” value [5] was 0.1534 ng/mL and the “plasma LH levels, effect” value [6] was “suppressed at all dosage levels”.
